Assay results as given in ChEMBL document CHEMBL4725449, “Brain Penetrable Inhibitors of Ceramide Galactosyltransferase for the Treatment of Lysosomal Storage Disorders” (ACS Med Chem Lett, 2020).
Values after ≈ are worked out from the molar mass of the structure shown.

Tests used:
[1] = Thermodynamic solubility of the compound […] at pH 7.4; type: physicochemical; conditions: read-out: Therm_solubility
[2] = biological target: T1, 2-hydroxyacylsphingosine 1-beta-galactosyltransferase (Homo sapiens, UniProt Q16880); experiment: Inhibition of UGT8 in human OE19 cells assessed as redcution in SFT accumulation measured after 72 hrs by LC-MS/MS analysis; type: cell-based
T1 sequence (Q16880 whole entry): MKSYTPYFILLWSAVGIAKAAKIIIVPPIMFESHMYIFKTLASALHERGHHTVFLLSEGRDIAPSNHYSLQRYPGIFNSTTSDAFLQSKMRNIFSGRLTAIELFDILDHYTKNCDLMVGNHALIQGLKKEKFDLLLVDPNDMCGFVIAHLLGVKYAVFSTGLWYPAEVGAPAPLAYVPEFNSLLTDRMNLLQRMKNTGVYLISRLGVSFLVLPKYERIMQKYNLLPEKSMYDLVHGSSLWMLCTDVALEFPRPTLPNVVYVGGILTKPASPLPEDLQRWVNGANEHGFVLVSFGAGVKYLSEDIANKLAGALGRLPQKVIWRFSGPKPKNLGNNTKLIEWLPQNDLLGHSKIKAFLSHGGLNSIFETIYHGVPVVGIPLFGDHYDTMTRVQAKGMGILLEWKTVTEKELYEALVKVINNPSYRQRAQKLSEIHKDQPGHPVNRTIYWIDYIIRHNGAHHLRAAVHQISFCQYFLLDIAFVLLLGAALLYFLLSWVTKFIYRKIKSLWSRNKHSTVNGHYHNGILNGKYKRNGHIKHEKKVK

[3] = biological target: T1, 2-hydroxyacylsphingosine 1-beta-galactosyltransferase; experiment: Inhibition of UGT8 in human OE19 cells assessed as redcution in GalCer accumulation measured after 72 hrs by LC-MS/MS analysis; type: cell-based
[4] = Distribution coefficient, log D of the compound; type: physicochemical; conditions: octanol/water
[5] = Drug uptake in C57BL/6 mouse brain at 3 mg/kg, iv measured at 5 mins; type: ADME, organism-based; conditions: read-out: Drug uptake
[6] = Drug uptake in C57BL/6 mouse brain at 3 mg/kg, iv measured at 1 hr; type: ADME, organism-based; conditions: read-out: Drug uptake
[7] = Ratio of drug concentration in brain to plasma in C57BL/6 mouse measured at 5 mins; type: ADME, organism-based; conditions: read-out: BPR
[8] = Ratio of drug concentration in brain to plasma in C57BL/6 mouse measured at 1 hr; type: ADME, organism-based; conditions: read-out: BPR
[9] = Intrinsic clearance in human liver microsomes; type: ADME, Microsome; conditions: read-out: CLH
[10] = Apparent permeability of the compound at pH 6.5 to 7.4 by PAMPA; type: ADME

| SMILES | solubility thermodynamic [1] | IC50 [2] | IC50 [3] | logD [4] | concentration at 5 min [5] | concentration at 1 h [6] | Kp at 5 min [7] | Kp at 1 h [8] | microsomal CLint [9] | Papp [10] |
| --- | --- | --- | --- | --- | --- | --- | --- | --- | --- | --- |
| CNC(=O)c1csc2c(C(F)(F)F)cc(N3CCN(C(=O)COC(C)C)CC3)nc12 | – | 660 nM | 450 nM | 3.1 | 228 ng/mL | 8 ng/mL | 0.07 | 0.06 | 42 µL/min/mg | 69 ×10⁻⁶ cm/s |
| CCC(=O)c1csc2c(C(F)(F)F)cc(N3CCN(CC(=O)NC(C)C)CC3)nc12 | – | 97 nM | 120 nM | 3.6 | 1400 ng/mL | 270 ng/mL | 0.83 | 0.72 | 36 µL/min/mg | > 80 ×10⁻⁶ cm/s |
| CNC(=O)c1csc2c(C(F)(F)F)cc(N3CCN(CC(O)COC(C)(C)C)CC3)nc12 (stereo not drawn) | – | 190 nM | 350 nM | 3.7 | 1700 ng/mL | 210 ng/mL | 0.93 | 0.35 | 51 µL/min/mg | 78 ×10⁻⁶ cm/s |
| CNC(=O)c1csc2c(C(F)(F)F)cc(N3CCC(OC(=O)NCC4CC4)C3)nc12 (stereo not drawn) | – | 610 nM | – | – | – | – | – | – | – | – |
| CC(C)NC(=O)CN1CCN(c2cc(C(F)(F)F)c3scc(C(=O)N4CCC4)c3n2)CC1 | – | 640 nM | 320 nM | 2.7 | – | – | – | – | 27 µL/min/mg | 66 ×10⁻⁶ cm/s |
| CNC(=O)c1csc2c(C(F)(F)F)cc(N3CCN(CCOC(C)C)CC3)nc12 | – | 330 nM | 200 nM | 3.6 | 3000 ng/mL | 1700 ng/mL | 1.8 | 1 | 96 µL/min/mg | > 80 ×10⁻⁶ cm/s |
| CNC(=O)c1csc2c(C(F)(F)F)cc(N3CC(OC(=O)NCC4CC4)C3)nc12 | – | 200 nM | – | – | – | – | – | – | – | – |
| CNC(=O)c1csc2c(C(F)(F)F)cc(N3CCN(C(C)C(=O)NC4CC4)CC3)nc12 (stereo not drawn) | – | 170 nM | 360 nM | 3.3 | 43 ng/mL | – | 0.01 | – | 34 µL/min/mg | 75 ×10⁻⁶ cm/s |
| CNC(=O)c1csc2c(C(F)(F)F)cc(N3CCN(CC(=O)C(C)(C)C)CC3)nc12 | – | 610 nM | 1400 nM | 3.3 | 1100 ng/mL | 170 ng/mL | 0.81 | 0.54 | 5 µL/min/mg | > 80 ×10⁻⁶ cm/s |
| CNC(=O)c1csc2c(C(F)(F)F)cc(N3CCC(OC(=O)NCCN4CCCC4)CC3)nc12 | 430 µM (≈ 215 µg/mL) | 510 nM | – | – | – | – | – | – | – | – |
| CNC(=O)c1csc2c(C(F)(F)F)cc(N3CCC(OC(=O)N4CC(CN(C)C)C4)CC3)nc12 | 420 µM (≈ 210 µg/mL) | 980 nM | – | – | – | – | – | – | – | – |
| CNC(=O)c1csc2c(C(F)(F)F)cc(N3CCN(CC(=O)NC(C)C)CC3)nc12 | – | 67 nM | 90 nM | – | – | – | – | – | – | – |

Now those with a lower IC50 [2], led by results:

| solubility thermodynamic [1] | IC50 [2] | IC50 [3] | logD [4] | concentration at 5 min [5] | concentration at 1 h [6] | Kp at 5 min [7] | Kp at 1 h [8] | microsomal CLint [9] | Papp [10] | SMILES |
| --- | --- | --- | --- | --- | --- | --- | --- | --- | --- | --- |
| < 0.5 µM | 0.4 nM | 0.6 nM | 4.7 | 1640 ng/mL | 128 ng/mL | 0.59 | 0.24 | – | – | CNC(=O)c1csc2c(C(F)(F)F)cc(N3CCC(OC(=O)NCCOC(F)(F)F)CC3)nc12 |
| – | 48 nM | 43 nM | – | – | – | – | – | – | – | CNC(=O)c1csc2c(C(F)(F)F)cc(N3CC(NC(=O)OCC4CC4)C3)nc12 |
| < 0.5 µM | 1.7 nM | 2.9 nM | 5.13 | 3430 ng/mL | 316 ng/mL | 1.67 | 0.59 | 41 µL/min/mg | > 80 ×10⁻⁶ cm/s | CNC(=O)c1csc2c(C(F)(F)F)cc(N3CCC(OC(=O)N4CC(OC(F)(F)F)C4)CC3)nc12 |
| – | 1 nM | 3 nM | 4.2 | 2140 ng/mL | 132 ng/mL | 0.91 | 0.31 | 59 µL/min/mg | > 80 ×10⁻⁶ cm/s | CNC(=O)c1csc2c(C(F)(F)F)cc(N3CCC(OC(=O)NCC4CC4)CC3)nc12 |
| < 0.5 µM | 0.9 nM | 0.4 nM | 4.56 | 2370 ng/mL | 192 ng/mL | 1.45 | 0.76 | – | – | CC[C@H](C)NC(=O)OC1CCN(c2cc(C(F)(F)F)c3scc(C(=O)NC)c3n2)CC1 |
| < 0.5 µM | 0.9 nM | 1.1 nM | 4.29 | 1480 ng/mL | 143 ng/mL | 0.76 | 0.42 | 70 µL/min/mg | > 80 ×10⁻⁶ cm/s | CNC(=O)c1csc2c(C(F)(F)F)cc(N3CCC(OC(=O)N[C@@H](C)C4CC4)CC3)nc12 |
| – | 18 nM | 37 nM | – | – | – | – | – | – | – | CNC(=O)c1csc2c(C(F)(F)F)cc(N3CCC(NC(=O)OCC4CC4)CC3)nc12 |
| – | 2 nM | 2 nM | 4.35 | 2700 ng/mL | 302 ng/mL | 1.88 | 1.03 | 46 µL/min/mg | > 80 ×10⁻⁶ cm/s | CNC(=O)c1csc2c(C(F)(F)F)cc(N3CCC(OC(=O)NC(C)C)CC3)nc12 |
